The record followed here is patent publication US20240025919A1, “AZA-TETRACYCLIC OXAZEPINE COMPOUNDS AND USES THEREOF” (Genentech, Inc., priority 2022, published 2024).

The term IC50 denotes the concentration that gives 50% inhibition.

Read-outs that look alike come from different tables or passages of the source.

The target of assay [1] is KRAS WT (Homo sapiens (Human), UniProt P01116). Kind of assay: KRAS WT Biochemical Assay, BODIPY-GDP Exchange TR-FRET (Example 501; 3 nM KRAS WT, 3 nM SOS1, 60-minute incubation). The essentials: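 SOS1-mediated exchange assay: 3 nM biotin-KRAS WT with terbium-streptavidin, started with 3 nM SOS1 and 300 nM BODIPY-GDP, HEPES pH 7.5 with MgCl2. TR-FRET (520/490 nm) read after 60 min; normalized to DMSO and full-inhibition control, IC50 from 4-parameter Hill fit.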
Sequence of KRAS WT (P01116-2 other isoform, or with tags, fused parts or gaps): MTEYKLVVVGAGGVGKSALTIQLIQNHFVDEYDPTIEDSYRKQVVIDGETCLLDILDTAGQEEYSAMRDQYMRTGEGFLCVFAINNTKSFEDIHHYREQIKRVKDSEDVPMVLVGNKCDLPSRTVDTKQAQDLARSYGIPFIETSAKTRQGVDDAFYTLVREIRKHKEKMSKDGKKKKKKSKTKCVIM
(In general: TR-FRET usually uses a lanthanide donor and a delayed reading to cut background.)

For assay [2], the target named is KRAS G12D (Homo sapiens (Human), UniProt P01116, G12D). The assay can be described thus: KRAS G12D LoEnz Biochemical Assay, BODIPY-GDP Exchange TR-FRET (SOS1-mediated nucleotide exchange). To be noted: read-out: KRas (G12D) GDP HTRF IC50.
Sequence of KRAS G12D (P01116-2 other isoform, or with tags, fused parts or gaps G12D): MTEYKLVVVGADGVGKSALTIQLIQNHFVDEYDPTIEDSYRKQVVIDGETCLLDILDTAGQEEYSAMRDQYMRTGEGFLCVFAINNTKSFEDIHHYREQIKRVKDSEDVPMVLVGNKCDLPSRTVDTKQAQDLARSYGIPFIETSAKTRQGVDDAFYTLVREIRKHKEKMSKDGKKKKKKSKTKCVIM
[3] abbreviates: read-out: KRas(wt) GDP HTRF IC50.

In the case of `C[C@@H]1Oc2nc(-c3cncc4ccccc34)c(F)c3nc(OC[C@@]45CCCN4CC4(CC4(F)F)C5)nc(c23)N2C[C@H]3CC[C@H](N3)[C@@H]12` (stereo partly drawn) [Compound 30, (5S,5aS,6S,9R)-12-(((7a′S)-2,2-difluorodihydro-1′H,3′H-spiro[cyclopropane-1,2′-pyrrolizin]-7a′(5′H)-yl)methoxy)-1-fluoro-2-(isoquinolin-4-yl)-5-methyl-5a,6,7,8,9,10-hexahydro-5H-4-oxa-3,10a,11,13,14-pentaaza-6,9-methanonaphtho[1,8-ab]heptalene], the IC50 was found to be 598 nM in assay [1] (setting [3]) and 19.4 nM in assay [2].

`C[C@@H]1Oc2nc(-c3cc(N)c(F)c(F)c3C(F)(F)F)c(F)c3nc(OC[C@@]45CCCN4C[C@H](F)C5)nc(c23)N2C[C@H]3CC[C@H](N3)[C@@H]12` [Compound 15, 2,3-difluoro-5-((5S,5aS,6S,9R)-1-fluoro-12-(((2R,7aS)-2-fluorotetrahydro-1H-pyrrolizin-7a(5H)-yl)methoxy)-5-methyl-5a,6,7,8,9,10-hexahydro-5H-4-oxa-3,10a,11,13,14-pentaaza-6,9-methanonaphtho[1,8-ab]heptalen-2-yl)-4-(trifluoromethyl)aniline]: the IC50 is 0.448 nM in assay [1] (setting [3]) and 0.07 nM in assay [2].

Regarding `Cc1nc(N)c(F)c(-c2nc3c4c(nc(OC[C@@]56CCCN5C[C@H](F)C6)nc4c2F)N2C[C@H]4CC[C@H](N4)[C@H]2[C@H](C)O3)c1C(F)(F)F` [Compound 194, 3-Fluoro-4-((5S,5aS,6S,9R)-1-fluoro-12-(((2R,7aS)-2-fluorotetrahydro-1H-pyrrolizin-7a(5H)-yl)methoxy)-5-methyl-5a,6,7,8,9,10-hexahydro-5H-4-oxa-3,10a,11,13,14-pentaaza-6,9-methanonaphtho[1,8-ab]heptalen-2-yl)-6-methyl-5-(trifluoromethyl)pyridin-2-amine], the IC50 was 28.9 nM in assay [1] (read-out: KRas HTRF IC50) and 0.42 nM in assay [2].

`COC1(CF)CN(CC2(COc3nc4c5c(nc(-c6cc(N)nc(C)c6C(F)(F)F)c(F)c5n3)O[C@@H](C)[C@@H]3[C@@H]5CC[C@H](CN43)N5)CC2)C1` [Compound 272, 4-((5S,5aS,6S,9R)-1-fluoro-12-((1-((3-(fluoromethyl)-3-methoxyazetidin-1-yl)methyl)cyclopropyl)methoxy)-5-methyl-5a,6,7,8,9,10-hexahydro-5H-4-oxa-3,10a,11,13,14-pentaaza-6,9-methanonaphtho[1,8-ab]heptalene-2-yl)-6-methyl-5-(trifluoromethyl)pyridin-2-amine]: the values for the concentration for half-maximal inhibition (IC50) in assay [1] (read-out: KRas HTRF IC50) and in assay [2] were 24.4 nM and 0.38 nM, respectively.

`C[C@@H]1Oc2nc(-c3cc(N)c(F)c(F)c3CC(F)F)c(F)c3nc(OC[C@@]45CCCN4C[C@H](F)C5)nc(c23)N2C[C@H]3CC[C@H](N3)[C@@H]12` [Compound 190, 4-(2,2-Difluoroethyl)-2,3-difluoro-5-((5S,5aS,6S,9R)-1-fluoro-12-(((2R,7aS)-2-fluorotetrahydro-1H-pyrrolizin-7a(5H)-yl)methoxy)-5-methyl-5a,6,7,8,9,10-hexahydro-5H-4-oxa-3,10a,11,13,14-pentaaza-6,9-methanonaphtho[1,8-ab]heptalene-2-yl)aniline]: the figures for the IC50 in assay [1] (read-out: KRas HTRF IC50) and in assay [2] were 10.1 nM and 0.11 nM, respectively.

As to `Cc1nc(N)cc(-c2nc3c4c(nc(OCC5(CN6CC7CC(F)(F)C7C6)CC5)nc4c2F)N2C[C@H]4CC[C@H](N4)[C@H]2[C@H](C)O3)c1C(F)(F)F` (mixture of isomers) [Compound 264, 4-((5S,5aS,6S,9R)-12-((1-((6,6-difluoro-3-azabicyclo[3.2.0]heptan-3-yl)methyl)cyclopropyl)methoxy)-1-fluoro-5-methyl-5a,6,7,8,9,10-hexahydro-5H-4-oxa-3,10a,11,13,14-pentaaza-6,9-methanonaphtho[1,8-ab]heptalene-2-yl)-6-methyl-5-(trifluoromethyl)pyridin-2-amine], the IC50 in assay [1] (read-out: KRas HTRF IC50) was found to be 19.2 nM; in assay [2] it was 0.33 nM.

Turning to `Cc1c(F)c(N)cc(-c2nc3c4c(nc(OCC5(CN6CCOCC6)CC5)nc4c2F)N2C[C@H]4CC[C@H](N4)[C@H]2[C@H](C(F)(F)F)O3)c1C(F)(F)F` [Compound 249, 2-Fluoro-5-((5R,5aS,6S,9R)-1-fluoro-12-((1-(morpholinomethyl)cyclopropyl)methoxy)-5-(trifluoromethyl)-5a,6,7,8,9,10-hexahydro-5H-4-oxa-3,10a,11,13,14-pentaaza-6,9-methanonaphtho[1,8-ab]heptalene-2-yl)-3-methyl-4-(trifluoromethyl)aniline], the IC50 in assay [1] (read-out: KRas HTRF IC50) was determined as 1.37 nM; in assay [2] it was 0.22 nM.

In the case of `Cc1nc(N)cc(-c2nc3c4c(nc(OC[C@@H]5CC[C@H]6COCCN65)nc4c2F)N2C[C@H]4CC[C@H](N4)[C@H]2[C@H](C(F)(F)F)O3)c1C(F)(F)F` [Compound 253, 4-((5R,5aS,6S,9R)-1-Fluoro-12-(((6S,8aS)-hexahydro-1H-pyrrolo[2,1-c][1,4]oxazin-6-yl)methoxy)-5-(trifluoromethyl)-5a,6,7,8,9,10-hexahydro-5H-4-oxa-3,10a,11,13,14-pentaaza-6,9-methanonaphtho[1,8-ab]heptalene-2-yl)-6-methyl-5-(trifluoromethyl)pyridin-2-amine], the results for the IC50 in assay [1] (read-out: KRas HTRF IC50) and in assay [2] were 37.1 nM and 1.03 nM, respectively.

As to `Cc1c(F)c(N)cc(-c2nc3c4c(nc(OC[C@@]56CCCN5C[C@H](F)C6)nc4c2F)N2C[C@H]4CC[C@H](N4)[C@H]2[C@H](C(F)(F)F)O3)c1C(F)(F)F` [Compound 247, 2-Fluoro-5-((5R,5aS,6S,9R)-1-fluoro-12-(((2R,7aS)-2-fluorotetrahydro-1H-pyrrolizin-7a(5H)-yl)methoxy)-5-(trifluoromethyl)-5a,6,7,8,9,10-hexahydro-5H-4-oxa-3,10a,11,13,14-pentaaza-6,9-methanonaphtho[1,8-ab]heptalene-2-yl)-3-methyl-4-(trifluoromethyl)aniline], the results for the IC50 in assay [1] (read-out: KRas HTRF IC50) and in assay [2] were 0.959 nM and 0.21 nM, respectively.

On to `Cc1c(F)c(N)cc(-c2nc3c4c(nc(OC[C@@H]5CC[C@H]6COCCN65)nc4c2F)N2C[C@H]4CC[C@H](N4)[C@H]2[C@H](C(F)(F)F)O3)c1C(F)(F)F` [Compound 245, 2-Fluoro-5-((5R,5aS,6S,9R)-1-fluoro-12-(((6S,8aS)-hexahydro-1H-pyrrolo[2,1-c][1,4]oxazin-6-yl)methoxy)-5-(trifluoromethyl)-5a,6,7,8,9,10-hexahydro-5H-4-oxa-3,10a,11,13,14-pentaaza-6,9-methanonaphtho[1,8-ab]heptalene-2-yl)-3-methyl-4-(trifluoromethyl)aniline], for which the concentration for half-maximal inhibition (IC50) in assay [1] (read-out: KRas HTRF IC50) turned out to be 7.44 nM; in assay [2] it was 0.249 nM.

On to `C[C@@H]1Oc2nc(-c3cc(N)cc4c3CC4)c(F)c3nc(OC[C@@]45CCCN4C[C@H](F)C5)nc(c23)N2C[C@H]3CC[C@H](N3)[C@@H]12` [Compound 201, 5-((5S,5aS,6S,9R)-1-Fluoro-12-(((2R,7aS)-2-fluorotetrahydro-1H-pyrrolizin-7a(5H)-yl)methoxy)-5-methyl-5a,6,7,8,9,10-hexahydro-5H-4-oxa-3,10a,11,13,14-pentaaza-6,9-methanonaphtho[1,8-ab]heptalen-2-yl)bicyclo[4.2.0]octa-1(6),2,4-trien-3-amine], for which the half-maximal inhibitory concentration (IC50) in assay [1] (read-out: KRas HTRF IC50) was determined as 1620 nM; in assay [2], 9.19 nM.

As to `Cn1ncc2ccc(F)c(-c3nc4c5c(nc(OC[C@@]67CCCN6C[C@H](F)C7)nc5c3F)N3C[C@H]5CC[C@H](N5)[C@H]3CO4)c21` [Compound 4, (5aS,6S,9R)-1-fluoro-2-(6-fluoro-1-methyl-1H-indazol-7-yl)-12-(((2R,7aS)-2-fluorotetrahydro-1H-pyrrolizin-7a(5H)-yl)methoxy)-5a,6,7,8,9,10-hexahydro-5H-4-oxa-3,10a,11,13,14-pentaaza-6,9-methanonaphtho[1,8-ab]heptalene], the IC50 in assay [1] (setting [3]) came out at 9570 nM; in assay [2] it was 899 nM.

As for `Cc1c(F)c(N)c(F)c(-c2nc3c4c(nc(OC[C@@]56CCCN5C/C(=C\F)C6)nc4c2F)N2C[C@H]4CC[C@H](N4)[C@H]2[C@H](C)O3)c1C(F)(F)F` [Compound 229, 2,6-Difluoro-3-((5S,5aS,6S,9R)-1-fluoro-12-(((S,Z)-2-(fluoromethylene)tetrahydro-1H-pyrrolizin-7a(5H)-yl)methoxy)-5-methyl-5a,6,7,8,9,10-hexahydro-5H-4-oxa-3,10a,11,13,14-pentaaza-6,9-methanonaphtho[1,8-ab]heptalene-2-yl)-5-methyl-4-(trifluoromethyl)aniline], the IC50 in assay [1] (read-out: KRas HTRF IC50) was 12 nM; in assay [2], 0.36 nM.

Turning to `C[C@@H]1Oc2nc(-c3cc(N)c(F)cc3CC(F)F)c(F)c3nc(OC[C@@]45CCCN4C[C@H](F)C5)nc(c23)N2C[C@H]3CC[C@H](N3)[C@@H]12` [Compound 187, 4-(2,2-Difluoroethyl)-2-fluoro-5-((5S,5aS,6S,9R)-1-fluoro-12-(((2R,7aS)-2-fluorotetrahydro-1H-pyrrolizin-7a(5H)-yl)methoxy)-5-methyl-5a,6,7,8,9,10-hexahydro-5H-4-oxa-3,10a,11,13,14-pentaaza-6,9-methanonaphtho[1,8-ab]heptalene-2-yl)aniline], the 50% inhibitory concentration (IC50) is 163 nM in assay [1] (read-out: KRas HTRF IC50) and 0.51 nM in assay [2].

As for `C[C@@H]1Oc2nc(-c3cc(N)c(=O)n(C)c3C(F)(F)F)c(F)c3nc(OC[C@@]45CCCN4C[C@H](F)C5)nc(c23)N2C[C@H]3CC[C@H](N3)[C@@H]12` [Compound 184, 3-Amino-5-((5S,5aS,6S,9R)-1-fluoro-12-(((2R,7aS)-2-fluorotetrahydro-1H-pyrrolizin-7a(5H)-yl)methoxy)-5-methyl-5a,6,7,8,9,10-hexahydro-5H-4-oxa-3,10a,11,13,14-pentaaza-6,9-methanonaphtho[1,8-ab]heptalene-2-yl)-1-methyl-6-(trifluoromethyl)pyridin-2(1H)-one], the results for the IC50 in assay [1] (read-out: KRas HTRF IC50) and in assay [2] were 393 nM and 1.98 nM, respectively.
